This passage reports melting point results from a melting point compilation (Tetko et al.; mined from patent text by program, amines drawn as free bases though some values may be those of a salt).

The melting point is the temperature, or range, at which the solid turns liquid.

With `Cc1cc(-c2c(-c3ccc(F)cc3)ncn2CCCN2CCOCC2)ccn1`, the melting point was in the range of 116 to 117 °C.

Compound `CCCCOc1ccc(-c2ccc3c(c2)C=C(C(=O)Nc2ccc(C(O)c4ccccn4)cc2)CCS3(=O)=O)cc1` (stereo unspecified) gave a melting point of 142 to 145 °C.

Take `CCCCN/C(=C1/Sc2ccccc2C1=O)c1ccccc1`: the melting point fell in the range of 106 to 107 °C.

In turn, `Cn1cc(-c2ccnnc2)ccc1=O` came in with a melting point above 250 °C.

For `CC1(C)NC(=O)c2cc(C#N)ccc2O1`, the melting point was 127 to 129 °C.

Consider `COc1cc(Nc2c(C#N)cnc3cc(OCCCN4CCC(N5CCCCC5)CC4)c(OC)cc23)c(Cl)cc1Cl`, for which the melting point was 130 to 132 °C.

For `Cn1c(Cl)c(C(=O)O)c2ccc(Cl)cc21`, the melting point fell in the range of 243 to 245 °C.

For the compound `Cc1ccc(C(OS(=O)(=O)c2c(C)cc(C)c(S(=O)(=O)OC(c3ccc(C)cc3)(C(F)(F)F)C(F)(F)F)c2C)(C(F)(F)F)C(F)(F)F)cc1`, the melting point stood at 178 °C.

The compound `CC(C=[N+]([O-])C(C)(C)C)c1ccccc1` (stereo unspecified) yielded a melting point of 56 °C.

`Clc1ccc2nc(Cl)c3nnc(-c4ccccc4)n3c2c1` came in with a melting point of 305 to 307 °C.

Turning to `CS(=O)(=O)c1ccc(-c2oc(CO)nc2-c2ccc(F)cc2)cc1`, the melting point lay in the range of 156 to 157 °C.

Compound `CC(C)C1COCc2nc3c(N)nc4cc(O)ccc4c3n21` (stereo unspecified) registered a melting point of 210 to 215 °C.

In turn, `Cc1cc(-c2ccc(-c3ccco3)cc2)n(-c2ccc(S(N)(=O)=O)cc2)c1` showed a melting point of 153 to 155 °C.

Take `N#CCc1c[nH]c2ccc(OCc3ccccc3)c(Cl)c12`: the melting point is 130 to 132 °C.

In turn, `COC1=C(OC)C(=O)C2=C(CC(CCCCOc3ccc(C(=O)N(C)C)cc3)C2)C1=O` came in with a melting point of 80 to 83 °C.

`CCOC(=O)COc1cccc2c1CCC2=O` returned a melting point of 91 to 93 °C.

`CCOC(=O)c1ccc(-c2ccc(-c3ccccc3O)c(-c3ccc4c(c3)C(C)(C)CCC4(C)C)c2)cc1` came in with a melting point of 161 to 163 °C.

In turn, `OC(CCC1CCNCC1)c1cc(-c2ccccc2)nc2ccccc12` (stereo unspecified) gave a melting point of 162 °C.

Compound `CC(C)c1cc(S(=O)(=O)Cl)c(C(C)C)cc1Br` showed a melting point of 80.5 to 83 °C.

For the compound `COC(=O)[C@H](CCCC(OC)OC)N1C(=O)c2ccccc2C1=O`, the melting point lay in the range of 69 to 70 °C.

The compound `CCC(=O)OCc1cc2c3ccccc3[nH]c(=O)n2n1` had a melting point of 184 to 186 °C.

The compound `COc1ccc(C(=O)c2cccc3c2CCC3C#N)cc1` (stereo unspecified) came in with a melting point of 109 to 112 °C.

Consider `Cc1c(O)c(Cl)cc(Cl)c1C(=O)O`, for which the melting point is 135 °C.

Turning to `O=C(O)c1cc2cc(Cl)ccc2nc1N[C@@H](Cc1ccc(OCc2ccccc2)cc1)C(=O)O`, the melting point was in the range of 169 to 171 °C.

`Cc1cc(C2=NOC(c3cc(Cl)cc(Cl)c3)(C(F)(F)F)C2)ccc1C(=O)Nc1ccc(Cl)cn1` (stereo unspecified) registered a melting point of 129 to 132 °C.

As for `O=CN(O)C(CCc1ccccc1)CS(=O)(=O)N1CCN(c2cc(Cl)ncn2)CC1` (stereo unspecified), the melting point lay in the range of 155 to 157 °C.

As to `CCOCCOc1ccc(OCC(O)CNCCNC(=O)N2CCOCC2)cc1` (stereo unspecified), the melting point is 75 to 77 °C.

`CC(=O)Nc1cc2c(cc1[N+](=O)[O-])OCOC2` had a melting point of 158 to 159 °C.

Consider `CSCS[C@H](C)[C@](O)(Cn1cncn1)c1ccc(F)cc1F`, for which the melting point lay within 108 to 109 °C.

The compound `CC(C)(C)c1cc(-c2nn(CCC#N)c3ncccc23)cc(C(C)(C)C)c1O` had a melting point of 158 to 160 °C.

Consider `N#CSc1ccc(N)c([N+](=O)[O-])c1`, for which the melting point is 110 to 112 °C.

In turn, `N=C(N)Nc1ncc(CO)s1` displayed a melting point of 168 to 170 °C.

`CC/C=C/CONC(=O)c1nc(-c2ccc(Cl)c(OC)c2F)cc(N)c1Cl` showed a melting point of 145 to 147 °C.

`COc1ccc(-n2nc(-c3ccc(OC)c(CCC(=O)N(C)O)c3OC)cc2-c2ccc(Cl)cc2)cc1` showed a melting point of 90 to 92 °C.

Regarding `Fc1ccc(Cn2c(NC3CCN(CCOc4nc5ccccc5s4)CC3)nc3ccccc32)cc1`, the melting point stood at 147 °C.

Consider `COC1CCN(S(=O)(=O)c2ccc(S(N)(=O)=O)cc2C(F)(F)F)CC1`, for which the melting point was 136 to 137 °C.

With `O=C(O)c1sc(Oc2ccc3c(c2)OCO3)c2c1CCc1cnoc1-2`, the melting point lay in the range of 226 to 228 °C.

In turn, `CCc1cc2c(C(=O)O)ccc(OC)c2o1` came in with a melting point of 215 to 216 °C.

`On1c(C(F)(F)F)nc2nc(Br)c(Cl)c(Br)c21`: the melting point came to 215 °C.

Regarding `CNc1nc(C)c(-c2ccnc(Nc3cccc(S(=O)(=O)NCCOC)c3)n2)s1`, the melting point is 205 to 206 °C.

`Cc1ccc(N2C(=O)C(O)=C(C(=O)c3ccc(OC(F)(F)F)cc3)C2c2ccc(Cn3cncn3)cc2)nn1` (stereo unspecified) returned a melting point of 224 °C.

`Nc1ccc([N+](=O)[O-])cc1C(=O)c1ccccc1Cl`: the melting point lay within 138 to 139 °C.

Turning to `CN(C)CCSc1cc(NC(=O)OC(C)(C)C)c(NC(=O)CC(=O)c2cccc(C#N)c2)cc1C#Cc1ccccc1`, the melting point amounted to 88 °C.

The compound `COC(=O)c1ccc(OCC(=O)NN=C2C(=O)Nc3ccc(I)cc32)cc1` gave a melting point of 288 °C.

On to `COc1ccc(Cl)c2c1[nH]c(=O)n1nc(CO)cc21`, for which the melting point lay in the range of 221 to 222 °C.

`NS(=O)(=O)c1cccnc1OC1CCCC1` displayed a melting point of 134 to 135 °C.

With `COc1c(Cl)cc(F)cc1C=O`, the melting point lay in the range of 59 to 62 °C.

The compound `CC(=O)Oc1ccc2c3c(cc(Cl)c2c1)-c1cc(F)c(OC(C)=O)cc1CO3` registered a melting point of 194 to 198 °C.

Turning to `Cc1cc(C)cc(OCC(O)CCCl)c1` (stereo unspecified), the melting point was in the range of 74 to 76 °C.

In turn, `O=C1C(O)=C([N+](=O)[O-])C(=O)c2ccc(F)cc21` yielded a melting point of 152 °C.

With `FC(F)(F)c1ccc(-c2cc(Oc3ccc4cccnc4c3)ncn2)cc1`, the melting point lay in the range of 178 to 180 °C.

In turn, `CC(C)(C)c1nc2cc(N3CCN(c4ccccc4)CC3)c([N+](=O)[O-])cc2s1` returned a melting point of 152 to 155 °C.

In the case of `CC(=O)Nc1c(C(=O)c2ccccc2)[nH]c2ccc(Cl)cc12`, the melting point was 200 to 201 °C.

As to `CCc1ccc2oc(C(=O)Nc3ccc(-c4ccc(S(=O)(=O)NC(C(=O)O)C(C)C)cc4)cc3)c(C)c2c1OC(C)C` (stereo unspecified), the melting point is 159 to 162 °C.

Compound `CC1(C(=O)Cn2cncn2)CC1` displayed a melting point of 58 °C.

Regarding `CCc1c[nH]c(C2Cc3ccccc3N2C(=O)Nc2ccccc2[N+](=O)[O-])n1` (stereo unspecified), the melting point lay within 208 to 209 °C.

`Nc1cc(SCc2ccc(F)cc2)nn1-c1c(Cl)cc(C(F)(F)F)cc1Cl` registered a melting point of 112 to 113 °C.

As to `Clc1cccc(Nc2ncnc3[nH]nc(NCc4cccnc4)c23)c1`, the melting point was 204 to 206 °C.

`CCOC(=O)c1cccc(-c2ccc3cc[nH]c3c2)c1` came in with a melting point of 120 to 121 °C.

With `COc1cc(/C=C/[N+](=O)[O-])cc(OC)c1`, the melting point stood at 132 °C.

On to `CCCc1c(OCCCS(=O)(=O)c2ccc(C3=CCC(=O)O3)cc2)ccc(C(C)=O)c1O`, for which the melting point lay in the range of 135 to 136 °C.

`O=C(O)c1cn(C2CC2)c2cc(F)c(F)cc2c1=O` came in with a melting point of 288 to 290 °C.

In turn, `O=C(Nc1ccc(Oc2cccc3c2CCC3=O)nc1)c1ccc(Cl)c(Cl)c1` came in with a melting point of 202 to 204 °C.

`Cc1cc(C=CC(=O)COc2ccc(CC(=O)O)cc2)cc(C)c1O` displayed a melting point of 151 to 154 °C.

Compound `Cn1cnc(S(=O)(=O)Nc2cc(C(c3cc(F)ccc3F)S(=O)(=O)c3ccc(Cl)cc3)c(Cl)cn2)c1` (stereo unspecified) gave a melting point of 294 to 296 °C.

`Oc1cc(O)nc(-c2ccc(Cl)cc2)n1` yielded a melting point of 333 °C.

Take `O=C1N(Cc2ccc(O)cc2)c2ccccc2C12COc1cc3c(cc12)CCO3` (stereo unspecified): the melting point was in the range of 226 to 227 °C.

In turn, `CC(=O)c1ccc(-n2c(-c3cc(-c4ccncc4)c(N4CCOCC4)s3)nc3ccccc3c2=O)cc1` showed a melting point of 241 to 242 °C.

As to `CC(C)Oc1ccc2c(n1)C(C(=O)c1cccs1)C(=O)N2C(N)=O` (stereo unspecified), the melting point is 194 to 196 °C.

`CC1=CC(C)=Nc2c(ccc3nc(O)c(O)nc23)N1` yielded a melting point above 300 °C.

`COc1cc2c3ccc(OC)c(OC)c3n(C(=O)c3cccc([N+](=O)[O-])c3)c2cc1OC` yielded a melting point of 187 to 191 °C.

On to `CN1CCN(c2ccnc3c(NC(=O)c4c(Cl)cccc4Cl)cc(Cl)cc23)C1=O`, for which the melting point was above 250 °C.

Turning to `OC(CCc1ccccc1)Cn1ccnc1` (stereo unspecified), the melting point was 106 to 107 °C.

`CNS(=O)(=O)c1ccc(Oc2ccc(N)cc2)cc1` registered a melting point of 121 to 122 °C.

The compound `CCOC(=O)COc1ccc(-c2nn(-c3ccccc3)c3ncccc23)cc1` came in with a melting point of 118 to 120 °C.

Consider `CC[C@H](C)[C@H](NC(=O)N(C)Cc1ccccn1)C(=O)N[C@@H](Cc1ccccc1)C[C@H](O)[C@H](Cc1ccccc1)NC(=O)OCc1cncs1`, for which the melting point is 64 to 67 °C.

`Cc1ccc(S(=O)(=O)OCC2COc3ccc4nccnc4c3O2)cc1` (stereo unspecified) yielded a melting point of 124 to 127 °C.

As to `CCOC(=O)c1nc(Nc2ccccc2)sc1-c1ccncc1`, the melting point was 167 to 169 °C.

Compound `COc1ccc(-c2cc(N(Cc3ccc(OCc4ccccc4)cc3)n3cnnc3)ccc2C#N)cc1` yielded a melting point of 219 to 221 °C.

`COc1cc2c3c(c(=O)n(C)c2cc1OC)CNCC3` returned a melting point of 178 to 179 °C.

`Cc1c(C)c(N2Cc3ccccc3C2)c(C)c2c1OC(C)(C)C2` came in with a melting point of 161 to 163 °C.

`CCNc1cccc(-c2ccnc3c(C(=O)c4ccco4)cnn23)c1` returned a melting point of 142 to 143 °C.

For the compound `COc1ccc(N2CCN(c3c(C)c(C)c4c(c3C)C(c3ccc(C)nc3)C(C)(C)O4)CC2)cc1` (stereo unspecified), the melting point was in the range of 131 to 133 °C.

With `CCOc1ccc(-c2nc(CCC(=O)O)cs2)cc1OCC`, the melting point fell in the range of 111 to 114 °C.

In turn, `O=c1oc2cc(O)c(O)cc2c(O)c1C1c2ccccc2Oc2c1c(=O)oc1cc(O)cc(O)c21` (stereo unspecified) yielded a melting point above 300 °C.

Turning to `Cc1cc(CNC(=O)c2sc(N3C[C@@H](C)N(Cc4ccc(F)cc4)C3=O)nc2C)[nH]n1`, the melting point was in the range of 215 to 216 °C.
